Measurements published in US8003785B2 (Takeda Pharmaceutical Company Limited, priority 2008, dated 2011).

Target: T1, PLK1 (Homo sapiens, UniProt P53350)
T1 construct: Full-length, active GST-PLK1 is purified from Sf9 insect cells; made in house; host or cells: Sf9 insect cells
Experiment: Biochemical Characterization Assay: HTRF kinase assay, GST-PLK1 phosphorylation of GST-p53
Conditions: GST-PLK1, GST-p53 substrate
How it was run: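 HTRF read-out of p53 phosphorylation: after EDTA stop, anti-phospho-p53 antibody bound 30 min at 37 °C in HEPES pH 7 buffer, with Eu-anti-rabbit/APC-anti-GST detection. Kinase step used full-length Sf9-expressed GST-PLK1 (3 ug/mL) and E. coli GST-p53 substrate, 35 min at 37 °C.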

T1 sequence (P53350 whole entry): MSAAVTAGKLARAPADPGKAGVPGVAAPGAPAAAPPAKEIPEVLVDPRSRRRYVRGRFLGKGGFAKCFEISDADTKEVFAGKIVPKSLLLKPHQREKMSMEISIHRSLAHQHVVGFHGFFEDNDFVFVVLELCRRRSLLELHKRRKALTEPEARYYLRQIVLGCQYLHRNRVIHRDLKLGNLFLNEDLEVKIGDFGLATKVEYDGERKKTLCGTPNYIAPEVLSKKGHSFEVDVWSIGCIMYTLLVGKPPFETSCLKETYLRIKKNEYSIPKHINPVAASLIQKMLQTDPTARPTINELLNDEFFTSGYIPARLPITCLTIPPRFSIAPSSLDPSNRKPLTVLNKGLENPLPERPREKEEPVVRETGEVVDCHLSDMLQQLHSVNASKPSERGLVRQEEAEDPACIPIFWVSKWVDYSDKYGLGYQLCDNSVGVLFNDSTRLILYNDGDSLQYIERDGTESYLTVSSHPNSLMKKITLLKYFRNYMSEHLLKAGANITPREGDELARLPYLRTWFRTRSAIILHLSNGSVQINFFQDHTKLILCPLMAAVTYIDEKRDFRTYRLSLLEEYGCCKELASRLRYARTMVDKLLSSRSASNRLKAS

Structure (SMILES) | IC50 (ATP) [nM] | IC50 [nM]
COc1cc(C(=O)NCCCN2CCN(C)CC2)ccc1Nc1ncc2c(n1)N(C1CCCC1)CC(F)(F)C(=O)N2C [Example I-87, 4-(9-cyclopentyl-7,7-difluoro-5-methyl-6-oxo-6,7,8,9-tetrahydro-5H-pyrimido[4,5-b][1,4]diazepin-2-ylamino)-3-methoxy-N-[3-(4-methyl-piperazin-1-yl)-propyl]-benzamide] | 1 to 50 | –
CNC(=O)c1ccc(Nc2ncc3c(n2)N(C2CCCC2)CC(F)(F)C(=O)N3C)c(F)c1 [Example I-228, 4-(9-cyclopentyl-7,7-difluoro-5-methyl-6-oxo-6,7,8,9-tetrahydro-5H-pyrimido[4,5-b][1,4]diazepin-2-ylamino)-3-fluoro-N-methyl-benzamide] | – | 1 to 50
COc1cc(C(=O)NC2CCN(C(C)C)CC2)ccc1Nc1ncc2c(n1)N(C1CCCC1)CC(F)(F)C(=O)N2C [Example I-64, 4-(9-cyclopentyl-7,7-difluoro-5-methyl-6-oxo-6,7,8,9-tetrahydro-5H-pyrimido[4,5-b][1,4]diazepin-2-ylamino)-N-(1-isopropyl-piperidin-4-yl)-3-methoxy-benzamide] | 1 to 50 | –
CCCN1C(=O)C(F)(F)CN(C2CCCC2)c2nc(Nc3ccc(C(N)=O)cc3)ncc21 [Example I-145, 4-(9-cyclopentyl-7,7-difluoro-6-oxo-5-propyl-6,7,8,9-tetrahydro-5H-pyrimido[4,5-b][1,4]diazepin-2-ylamino)-benzamide] | 500 to 5000 | –
CNC(=O)c1ccc(Nc2ncc3c(n2)N(C2CCCC2)CC(F)(F)C(=O)N3C)c(OC)c1 [Example I-24, 4-(9-cyclopentyl-7,7-difluoro-5-methyl-6-oxo-6,7,8,9-tetrahydro-5H-pyrimido[4,5-b][1,4]diazepin-2-ylamino)-3-methoxy-N-methyl-benzamide] | 1 to 50 | –
CN1C(=O)C(F)(F)CN(C2CCCCC2)c2nc(Nc3ccc(C(=O)NC4CCOCC4)cc3)ncc21 [Example I-263, 4-(9-cyclohexyl-7,7-difluoro-5-methyl-6-oxo-6,7,8,9-tetrahydro-5H-pyrimido[4,5-b][1,4]diazepin-2-ylamino)-N-(tetrahydro-pyran-4-yl)-benzamide] | – | 1 to 50
COc1cc(C(=O)NCCCCO)ccc1Nc1ncc2c(n1)N(C1CCCC1)CC(F)(F)C(=O)N2C [Example I-39, 4-(9-cyclopentyl-7,7-difluoro-5-methyl-6-oxo-6,7,8,9-tetrahydro-5H-pyrimido[4,5-b][1,4]diazepin-2-ylamino)-N-(4-hydroxy-butyl)-3-methoxy-benzamide] | 1 to 50 | –
CN1CCC(NC(=O)c2ccc(Nc3ncc4c(n3)N(C3CCCC3)CC(F)(F)C(=O)N4C)c(OC(F)(F)F)c2)CC1 [Example I-181, 4-(9-cyclopentyl-7,7-difluoro-5-methyl-6-oxo-6,7,8,9-tetrahydro-5H-pyrimido[4,5-b][1,4]diazepin-2-ylamino)-N-(1-methyl-piperidin-4-yl)-3-trifluoromethoxy-benzamide] | – | 1 to 50
COc1cc(C(=O)NC2CN3CCC2CC3)ccc1Nc1ncc2c(n1)N(C1CCCC1)CC(F)(F)C(=O)N2C [Example I-106, N—(R)-1-aza-bicyclo[2.2.2]oct-3-yl-4-(9-cyclopentyl-7,7-difluoro-5-methyl-6-oxo-6,7,8,9-tetrahydro-5H-pyrimido[4,5-b][1,4]diazepin-2-ylamino)-3-methoxy-benzamide] | 1 to 50 | –
COc1cc(C(=O)Nc2ccncc2)ccc1Nc1ncc2c(n1)N(C1CCCC1)CC(F)(F)C(=O)N2C [Example I-129, 4-(9-cyclopentyl-7,7-difluoro-5-methyl-6-oxo-6,7,8,9-tetrahydro-5H-pyrimido[4,5-b][1,4]diazepin-2-ylamino)-3-methoxy-N-pyridin-4-yl-benzamide] | 1 to 50 | –
Cc1cc(C(=O)NC2CCN(C)CC2)ccc1Nc1ncc2c(n1)N(C1CCCC1)CC(F)(F)C(=O)N2C [Example I-185, 4-(9-cyclopentyl-7,7-difluoro-5-methyl-6-oxo-6,7,8,9-tetrahydro-5H-pyrimido[4,5-b][1,4]diazepin-2-ylamino)-3-methyl-N-(1-methyl-piperidin-4-yl)-benzamide] | – | 1 to 50
